{
  "source": "patent US20260285850A1",
  "about": "“SUBSTITUTED OXAZOLIDINONES AND IMIDAZOLINONES AS HERBICIDES” (FMC CORPORATION, priority 2023, published 2026)",
  "format_in_all_cases": "in vivo",
  "key": {"[1]": {"tested_on": "blackgrass (Alopecurus myosuroides)", "assay": "Test A preemergence soil spray, visual injury rating 0-100", "details": "10 days", "how_it_was_run": "(§1)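 Preemergence directed soil spray or postemergence spray (2-10 cm, 1-2 leaf); loam/sand mix; compound in non-phytotoxic solvent + surfactant. Greenhouse, 10 d. Visual injury vs untreated, 0 = none, 100 = complete control.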"}, "[2]": {"tested_on": "kochia (Bassia scoparia)", "assay": "Test A preemergence soil spray, visual injury rating 0-100", "details": "10 days", "how_it_was_run": "as §1"}, "[3]": {"tested_on": "ryegrass, Italian (italian ryegrass, Lolium multiflorum)", "assay": "Test A preemergence soil spray, visual injury rating 0-100", "details": "10 days", "how_it_was_run": "as §1"}, "[4]": {"tested_on": "corn (Zea mays)", "assay": "Test A preemergence soil spray, visual injury rating 0-100", "details": "10 days", "how_it_was_run": "as §1"}, "[5]": {"tested_on": "ragweed (common ragweed, Ambrosia artemisiifolia)", "assay": "Test A preemergence soil spray, visual injury rating 0-100", "details": "10 days", "how_it_was_run": "as §1"}, "[6]": {"tested_on": "green foxtail (Setaria viridis)", "assay": "Test A preemergence soil spray, visual injury rating 0-100", "details": "10 days", "how_it_was_run": "as §1"}, "[7]": {"tested_on": "barnyardgrass (Echinochloa crus-galli)", "assay": "Test A preemergence soil spray, visual injury rating 0-100", "details": "10 days", "how_it_was_run": "as §1"}, "[8]": {"tested_on": "soybean (Glycine max)", "assay": "Test A preemergence soil spray, visual injury rating 0-100", "details": "10 days", "how_it_was_run": "as §1"}, "[9]": {"tested_on": "oat, wild (wild oat, Avena fatua)", "assay": "Test A preemergence soil spray, visual injury rating 0-100", "details": "10 days", "how_it_was_run": "as §1"}, "[10]": {"tested_on": "wheat (Triticum aestivum)", "assay": "Test A preemergence soil spray, visual injury rating 0-100", "details": "10 days", "how_it_was_run": "as §1"}, "[11]": {"tested_on": "palmer (palmer amaranth, palmer pigweed, Amaranthus palmeri)", "assay": "Test A preemergence soil spray, visual injury rating 0-100", "details": "10 days", "how_it_was_run": "as §1"}, "[12]": {"tested_on": "barnyardgrass (Echinochloa crusgalli)", "assay": "Test B flooded paddy test, visual plant response rating 0-100", "details": "250 g ai/ha, Flood, applied to paddy water, evaluated after 13 days", "how_it_was_run": "(§2)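 Visual scores versus untreated controls were recorded 13 days after treatment of greenhouse-held plants. At the 2-leaf stage, pots were flooded 3 cm above the soil surface and compounds added straight to the water.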"}, "[13]": {"tested_on": "ducksalad (Heteranthera limosa)", "assay": "Test B flooded paddy test, visual plant response rating 0-100", "details": "250 g ai/ha, Flood, applied to paddy water, evaluated after 13 days", "how_it_was_run": "as §2"}, "[14]": {"tested_on": "rice (Oryza sativa)", "assay": "Test B flooded paddy test, visual plant response rating 0-100", "details": "250 g ai/ha, Flood, applied to paddy water, evaluated after 13 days", "how_it_was_run": "as §2"}, "[15]": {"tested_on": "sedge, umbrella (small-flower umbrella sedge, Cyperus difformis)", "assay": "Test B flooded paddy test, visual plant response rating 0-100", "details": "250 g ai/ha, Flood, applied to paddy water, evaluated after 13 days", "how_it_was_run": "as §2"}, "[16]": {"tested_on": "blackgrass (Alopecurus myosuroides)", "assay": "Test A postemergence application, visual injury rating 0-100", "how_it_was_run": "as §1"}, "[17]": {"tested_on": "kochia (Bassia scoparia)", "assay": "Test A postemergence application, visual injury rating 0-100", "how_it_was_run": "as §1"}, "[18]": {"tested_on": "ryegrass, Italian (italian ryegrass, Lolium multiflorum)", "assay": "Test A postemergence application, visual injury rating 0-100", "how_it_was_run": "as §1"}, "[19]": {"tested_on": "corn (Zea mays)", "assay": "Test A postemergence application, visual injury rating 0-100", "how_it_was_run": "as §1"}, "[20]": {"tested_on": "horseweed (Erigeron canadensis)", "assay": "Test A postemergence application, visual injury rating 0-100", "how_it_was_run": "as §1"}, "[21]": {"tested_on": "ragweed (common ragweed, Ambrosia artemisiifolia)", "assay": "Test A postemergence application, visual injury rating 0-100", "how_it_was_run": "as §1"}, "[22]": {"tested_on": "green foxtail (Setaria viridis)", "assay": "Test A postemergence application, visual injury rating 0-100", "how_it_was_run": "as §1"}, "[23]": {"tested_on": "barnyardgrass (Echinochloa crus-galli)", "assay": "Test A postemergence application, visual injury rating 0-100", "how_it_was_run": "as §1"}, "[24]": {"tested_on": "soybean (Glycine max)", "assay": "Test A postemergence application, visual injury rating 0-100", "how_it_was_run": "as §1"}, "[25]": {"tested_on": "oat, wild (wild oat, Avena fatua)", "assay": "Test A postemergence application, visual injury rating 0-100", "how_it_was_run": "as §1"}, "[26]": {"tested_on": "wheat (Triticum aestivum)", "assay": "Test A postemergence application, visual injury rating 0-100", "how_it_was_run": "as §1"}, "[27]": {"tested_on": "palmer (palmer amaranth, palmer pigweed, Amaranthus palmeri)", "assay": "Test A postemergence application, visual injury rating 0-100", "how_it_was_run": "as §1"}, "[28]": {"details": "62 g ai/ha, 0 = no effect, 100 = complete control"}, "[29]": {"details": "62 g ai/ha, postemergence, 10 days, 0 = no effect, 100 = complete control"}, "[30]": {"details": "Postemergence, 16 g ai/ha, greenhouse 10 days, 0 no effect, 100 complete control"}},
  "data": [
    {"smiles": "CC1(C(=O)NC2CC=C(C(=O)O)C2)CN(c2cc(F)cc(Cl)c2)C(=O)O1", "note": "(centres unmarked) [Compound 159]", "values": [
      {"measurement": "Blackgrass plant response rating", "setting": "[1]; 16 g ai/ha, 0 to 100 scale", "result": 0},
      {"measurement": "Blackgrass plant response rating (0-100)", "setting": "[1]; [28]", "result": 0},
      {"measurement": "Kochia plant response rating", "setting": "[2]; 16 g ai/ha, 0 to 100 scale", "result": 0},
      {"measurement": "Kochia plant response rating (0-100)", "setting": "[2]; [28]", "result": 90},
      {"measurement": "Ryegrass, Italian plant response rating", "setting": "[3]; 16 g ai/ha, 0 to 100 scale", "result": 30},
      {"measurement": "Ryegrass, Italian plant response rating (0-100)", "setting": "[3]; [28]", "result": 90},
      {"measurement": "Corn plant response rating", "setting": "[4]; 16 g ai/ha, 0 to 100 scale", "result": 20},
      {"measurement": "Corn plant response rating (0-100)", "setting": "[4]; [28]", "result": 50},
      {"measurement": "Ragweed plant response rating", "setting": "[5]; 16 g ai/ha, 0 to 100 scale", "result": 0},
      {"measurement": "Ragweed plant response rating (0-100)", "setting": "[5]; [28]", "result": 0},
      {"measurement": "Foxtail, Green plant response rating", "setting": "[6]; 16 g ai/ha, 0 to 100 scale", "result": 20},
      {"measurement": "Foxtail, Green plant response rating (0-100)", "setting": "[6]; [28]", "result": 100},
      {"measurement": "Barnyardgrass plant response rating", "setting": "[7]; 16 g ai/ha, 0 to 100 scale", "result": 0},
      {"measurement": "Barnyardgrass plant response rating (0-100)", "setting": "[7]; [28]", "result": 80},
      {"measurement": "Soybean plant response rating", "setting": "[8]; 16 g ai/ha, 0 to 100 scale", "result": 0},
      {"measurement": "Soybean plant response rating (0-100)", "setting": "[8]; [28]", "result": 50},
      {"measurement": "Oat, Wild plant response rating", "setting": "[9]; 16 g ai/ha, 0 to 100 scale", "result": 0},
      {"measurement": "Oat, Wild plant response rating (0-100)", "setting": "[9]; [28]", "result": 20},
      {"measurement": "Wheat plant response rating", "setting": "[10]; 16 g ai/ha, 0 to 100 scale", "result": 50},
      {"measurement": "Wheat plant response rating (0-100)", "setting": "[10]; [28]", "result": 90},
      {"measurement": "Pigweed, Palmer plant response rating", "setting": "[11]; 16 g ai/ha, 0 to 100 scale", "result": 30},
      {"measurement": "Pigweed, Palmer plant response rating (0-100)", "setting": "[11]; [28]", "result": 100},
      {"measurement": "Plant response rating, Barnyardgrass (0 to 100 scale, 0 is no effect and 100 is complete control)", "setting": "[12]", "result": 95},
      {"measurement": "Plant response rating, Ducksalad (0 to 100 scale, 0 is no effect and 100 is complete control)", "setting": "[13]", "result": 100},
      {"measurement": "Plant response rating, Rice (0 to 100 scale, 0 is no effect and 100 is complete control)", "setting": "[14]", "result": 55},
      {"measurement": "Plant response rating, Sedge, Umbrella (0 to 100 scale, 0 is no effect and 100 is complete control)", "setting": "[15]", "result": 100},
      {"measurement": "Blackgrass plant response rating (0-100)", "setting": "[16]; [29]", "result": 90},
      {"measurement": "Blackgrass plant response rating (0 to 100 scale)", "setting": "[16]; [30]", "result": 80},
      {"measurement": "Kochia plant response rating (0-100)", "setting": "[17]; [29]", "result": 80},
      {"measurement": "Kochia plant response rating (0 to 100 scale)", "setting": "[17]; [30]", "result": 70},
      {"measurement": "Ryegrass, Italian plant response rating (0-100)", "setting": "[18]; [29]", "result": 100},
      {"measurement": "Ryegrass, Italian plant response rating (0 to 100 scale)", "setting": "[18]; [30]", "result": 60},
      {"measurement": "Corn plant response rating (0-100)", "setting": "[19]; [29]", "result": 100},
      {"measurement": "Corn plant response rating (0 to 100 scale)", "setting": "[19]; [30]", "result": 100},
      {"measurement": "Horseweed plant response rating (0-100)", "setting": "[20]; [29]", "result": 80},
      {"measurement": "Horseweed plant response rating (0 to 100 scale)", "setting": "[20]; [30]", "result": 50},
      {"measurement": "Ragweed plant response rating (0-100)", "setting": "[21]; [29]", "result": 70},
      {"measurement": "Ragweed plant response rating (0 to 100 scale)", "setting": "[21]; [30]", "result": 40},
      {"measurement": "Foxtail, Green plant response rating (0-100)", "setting": "[22]; [29]", "result": 90},
      {"measurement": "Foxtail, Green plant response rating (0 to 100 scale)", "setting": "[22]; [30]", "result": 70},
      {"measurement": "Barnyardgrass plant response rating (0-100)", "setting": "[23]; [29]", "result": 100},
      {"measurement": "Barnyardgrass plant response rating (0 to 100 scale)", "setting": "[23]; [30]", "result": 100},
      {"measurement": "Soybean plant response rating (0-100)", "setting": "[24]; [29]", "result": 80},
      {"measurement": "Soybean plant response rating (0 to 100 scale)", "setting": "[24]; [30]", "result": 80},
      {"measurement": "Oat, Wild plant response rating (0-100)", "setting": "[25]; [29]", "result": 30},
      {"measurement": "Oat, Wild plant response rating (0 to 100 scale)", "setting": "[25]; [30]", "result": 30},
      {"measurement": "Wheat plant response rating (0-100)", "setting": "[26]; [29]", "result": 90},
      {"measurement": "Wheat plant response rating (0 to 100 scale)", "setting": "[26]; [30]", "result": 30},
      {"measurement": "Pigweed, Palmer plant response rating (0-100)", "setting": "[27]; [29]", "result": 90},
      {"measurement": "Pigweed, Palmer plant response rating (0 to 100 scale)", "setting": "[27]; [30]", "result": 80}
    ]}
  ]
}
